Data taken from PubChem BioAssay (NCI).
Several values for one entry are separate records, joined by “and”; a condition that tells them apart may be missing. Identical values can stand only once.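 In this assay, cells in 96-well plates receive the compound at five concentrations for 48 hours. Endpoints are linearly interpolated between the surrounding concentrations. At the GI50, growth is halved. Definition used: TGI = concentration required for complete inhibition of growth.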

System: MDA-MB-468 breast
Assay: NCI anticancer screen, dose series, 48 h

| SMILES | GI50 | TGI |
| --- | --- | --- |
| CS(=O)(=O)c1ccc(Oc2cc(F)cc(C#N)c2)c2c1[C@H](O)[C@H](F)[C@H]2F | > 100 µM | > 100 µM |
| COc1cc(/C=C2\CN(S(=O)(=O)c3ccc(C)cc3)C/C(=C\c3cc(CN4CCOCC4)c(O)c(OC)c3)C2=O)cc(CN2CCOCC2)c1O | 4.05 µM | > 100 µM |
| Cc1ccc2c(n1)C(=O)C(Cl)=C(Nc1cccc(C)c1C)C2=O | 1.53 µM | 3.25 µM |
| CCN(Cc1ccccc1F)c1ccc(CO)c(Cl)c1 | – | 0.013 µM |
| Nc1ncc(-c2ccc3ncnc(N4CCc5ccc(Cl)cc54)c3c2)cn1 | 0.479 µM | 2.08 µM |
| Cc1ccc(C(=Nc2ccccc2)N=P(c2ccccc2)(c2ccccc2)c2ccccc2)cc1 | 0.944 µM | 4.3 µM |
| Nc1ccn(C2OC(CO)C(O)C2(F)F)c(=O)n1 (stereo not given) | 0.018 µM | 0.0558 µM |
| COc1ccc(-c2cc(=O)oc3ccc(Cl)cc23)cc1F | 0.11 µM and 0.0295 µM | 0.644 µM and 0.0979 µM |
| COc1cccc(C(=O)c2sc(Nc3ccc(N4CCN(C(C)C)CC4)cc3)nc2N)c1 | 1.62 µM | 9.22 µM |
| CC(C)Cc1ccc(C(C)C(=O)NCc2ccc(Cn3c(=O)sn(CCCCl)c3=O)cc2)cc1 (stereo not given) | 1.35 µM | 3.01 µM |
| CCOC(=O)C1=C(C)N=C2SC=C(c3ccccc3)N2[C@H]1c1cn[nH]c1-c1ccc(Cl)cc1 | 3.54 µM | 16.6 µM |
| Fc1ccc(-c2nc(C(Cl)Cl)nc3cc(-c4ccccc4)nn23)cc1 | 2.14 µM | 4.95 µM |
| COc1ccc([As]=[As]c2ccc(OC)c(NCS(=O)(=O)O)c2)cc1NCS(=O)(=O)O (stereo not given) | 1.29 µM | 3.06 µM |
| COc1ccc(-c2nn(C(=O)NCCN(C)C)cc2-c2ccncc2)cc1Cl | 1.95 µM | 11.7 µM |
| COc1ccc(O)c2c(=O)c3c(OC)cc4c(c3oc12)[C@@H]1C=CO[C@@H]1O4 | 0.131 µM | 0.447 µM |
| C#CCN(C)CCCOc1ccc(NC(=O)CCCCCCC(=O)NO)cc1Cl | 0.853 µM | 4.98 µM |
| CCN(CC)c1ccc(C2=NN(C(C)=O)C(c3cc(OC)c(OC)c(OC)c3)C2)cc1 (stereo not given) | 0.256 µM | 4.1 µM |
| CS(=O)(=O)Nc1cc(-c2ccc3ncc(C#N)c(Nc4cccc(Cl)c4F)c3c2)cnc1Cl | 0.116 µM | 1.39 µM |

| SMILES | GI50 | TGI |
| --- | --- | --- |
| CCN(Cc1cccnc1)c1ccc(CO)c(Cl)c1 | 0.029 µM | 0.104 µM |
| Cc1nc2ccc(Nc3nc(Cl)nc(Nc4ccc(F)cc4)n3)cc2n1Cc1ccccc1 | 1.86 µM | 3.78 µM |
| COc1ccc(C(=O)/C=C/c2c(OC)cc(OC)cc2OC)c(OC)c1 | 1.59 µM | 4.66 µM |
| COC1C(O)CC(OC2CC(OC3CC(O[C@@H]4C(=O)c5c(cc6cc(OC7CC(OC8CC(O)C(O)C(C)O8)C(O)C(C)O7)c(C)c(O)c6c5O)CC4[C@H](OC)C(=O)C(C)=O)OC(C)C3O)OC(C)C2O)OC1C (stereo not given in full) | 0.0161 µM | 0.0521 µM |
| O=C1Nc2ccccc2/C1=C/C(=O)c1ccc(N2CCCC2)cc1 | 1.96 µM | 6.59 µM |
| O=C1c2ccccc2C(=O)c2c(Nc3ccc(CCO)cc3)ccc(O)c21 | 1.43 µM | 22.8 µM |
| Cc1ccc(/C=C2\COc3ccc(O)c(O)c3C2=O)cc1 | 0.907 µM | 2.99 µM |
| CC12OC(CC(O)C1O)n1c3ccccc3c3c4c(c5c6ccccc6n2c5c31)C(=O)N(CCN1CCCC1)C4=O (stereo not given) | 1 µM | 3.11 µM |
| OCc1cn(Cc2ccc(Cl)cc2)c2ccccc12 | < 0.01 µM | – |
| CC(=O)OC[C@H]1OC(O)C=C[C@@H]1OC(C)=O (stereo not given in full) | 82.5 µM | 180 µM |
| OCCCc1n(Cc2ccc3ccccc3c2)c2ccccc2[n+]1Cc1ccc2ccccc2c1 | 0.291 µM | 1.37 µM |
| CC(C)Sc1nc(Nc2ccc(S(N)(=O)=O)cc2)c(C#N)c(-c2ccc(F)cc2)n1 | 4.59 µM | 18 µM |
| C/C(=N\NC(=O)c1ccc(C(C)(C)C)cc1)c1ccc(O)cc1O | 1.02 µM | 5.1 µM |
| CS(=O)(=O)Nc1ccc(Nc2c3ccccc3nc3cc([N+](=O)[O-])ccc23)cc1 | 0.304 µM | 2.02 µM |
| Cc1ccc(C(=O)Nc2ccc(CNCCN3CCOCC3)c(C(F)(F)F)c2)cc1C#Cc1cnc2cccnn12 | 2.15 µM | 6.19 µM |
| COc1cc2cc(c1Cl)N(C)C(=O)C[C@H](OC(=O)[C@H](C)N(C)C(=O)CCS)C[C@]1(C)O[C@H]1[C@H](C)[C@@H]1C[C@@](O)(NC(=O)O1)[C@H](OC)/C=C/C=C(\C)C2 | < 0.005 µM | < 0.005 µM |
| O=C(CI)OCC(COC(=O)CI)OC(=O)CI | 2.34 µM | 7.91 µM |
| CCOC(=O)c1ccc2c(c1)nc(-c1ccc(Cl)cc1)n2-c1cc(C(C)(C)C)[nH]n1 | 2.12 µM | 8.18 µM |
